Source: the NIST ThermoML archive (doi:10.1016/j.jct.2016.01.016)

Experiments:
[1] = Molar enthalpy of transition or fusion; conditions: DSC
[2] = for mass density: 101.33 kPa

NC(=O)CN1CCCC1=O [2-oxo-1-pyrrolidineacetamide]
Conditions | Molar enthalpy of transition or fusion, Crystal 1 [kcal/mol] | Molar enthalpy of transition or fusion, Metastable crystal [kcal/mol] | Triple point temperature, Crystal 1, DSC [K] | Triple point temperature, Crystal 2, X-ray diffraction [K]
[1] | 6.35 | 0.843 | – | –
[2] | – | – | 422.95 | 370.15

[2]
Conditions | Triple point temperature [K] | mass density [kg/m3] | molar volume [m3/mol]
300 K, Crystal 2, X-ray diffraction | – | 1373 | 0.0001036
310 K, Crystal 2, X-ray diffraction | – | – | 0.0001031
320 K, Crystal 2, X-ray diffraction | – | – | 0.0001039
330 K, Crystal 2, X-ray diffraction | – | – | 0.0001036
340 K, Crystal 2, X-ray diffraction | – | – | 0.0001042
350 K, Crystal 2, X-ray diffraction | – | – | 0.0001042
360 K, Crystal 2, X-ray diffraction | – | – | 0.0001047
370 K, Crystal 1, X-ray diffraction | – | – | 0.0001104
370 K, Crystal 2, X-ray diffraction | – | – | 0.0001049
375 K, Crystal 1, X-ray diffraction | – | – | 0.0001105
380 K, Crystal 1, X-ray diffraction | – | – | 0.0001106
385 K, Crystal 1, X-ray diffraction | – | – | 0.0001108
390 K, Crystal 1, X-ray diffraction | – | – | 0.0001108
395 K, Crystal 1, X-ray diffraction | – | – | 0.000111
400 K, Crystal 1, X-ray diffraction | – | 1281 | 0.000111
405 K, Crystal 1, X-ray diffraction | – | – | 0.0001112
410 K, Crystal 1, X-ray diffraction | – | – | 0.0001112
Metastable crystal, DSC | 365.05 | – | –
Metastable crystal, X-ray diffraction | 360.15 | – | –

[2]
Conditions | mass density [kg/m3] | molar volume [m3/mol]
300 K, Metastable crystal, X-ray diffraction | 1365 | 0.0001042
310 K, Metastable crystal, X-ray diffraction | – | 0.0001044
320 K, Metastable crystal, X-ray diffraction | – | 0.0001045
330 K, Metastable crystal, X-ray diffraction | – | 0.0001049
340 K, Metastable crystal, X-ray diffraction | – | 0.0001051
350 K, Metastable crystal, X-ray diffraction | – | 0.0001054
355 K, Metastable crystal, X-ray diffraction | – | 0.0001054
360 K, Metastable crystal, X-ray diffraction | – | 0.0001055
423 K, Liquid, Vibrating tube method | – | 0.0001228
428 K, Liquid, Vibrating tube method | – | 0.0001232
433 K, Liquid, Vibrating tube method | – | 0.0001235
438 K, Liquid, Vibrating tube method | – | 0.0001239
443 K, Liquid, Vibrating tube method | – | 0.0001241
448 K, Liquid, Vibrating tube method | – | 0.0001245
453 K, Liquid, Vibrating tube method | – | 0.0001248
458 K, Liquid, Vibrating tube method | – | 0.0001252
463 K, Liquid, Vibrating tube method | – | 0.0001255
468 K, Liquid, Vibrating tube method | – | 0.0001259
473 K, Liquid, Vibrating tube method | – | 0.0001262
